This note sets out measurements from publication PMC10887214 (Biomedicines, 2024).

Structures are written as SMILES.

Some targets named below: H4R (Homo sapiens, UniProt Q9H3N8); α7-nAChR (Homo sapiens, UniProt P36544); MRGPRX2 (Homo sapiens, UniProt Q96LB1); 5-HT4aR (Mus musculus, UniProt P97288).
For a further data set, the target named is T1, CB2 receptor (hCB2) (Homo sapiens, UniProt P34972).
T1 construct: expressed in transfected cells; host or cells: Xenopus laevis oocytes (cRNA injection)
T1 sequence (P34972 whole entry): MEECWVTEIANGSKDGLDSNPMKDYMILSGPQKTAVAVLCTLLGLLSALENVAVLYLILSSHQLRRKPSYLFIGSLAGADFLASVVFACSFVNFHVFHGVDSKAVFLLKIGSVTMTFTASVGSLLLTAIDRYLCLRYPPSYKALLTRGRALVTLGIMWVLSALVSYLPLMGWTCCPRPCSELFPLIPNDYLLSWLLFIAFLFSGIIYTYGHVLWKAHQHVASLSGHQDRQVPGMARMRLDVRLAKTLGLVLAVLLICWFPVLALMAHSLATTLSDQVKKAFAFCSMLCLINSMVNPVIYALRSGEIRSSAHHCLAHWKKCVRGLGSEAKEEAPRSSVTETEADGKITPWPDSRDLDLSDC
Kind of data set: Two-electrode voltage-clamp, CB2-GIRK1/GIRK2-RGS4 coupling system expressed in Xenopus oocytes. The class given is cell-based. On the technique in general: Two-electrode voltage clamp is typically applied to oocytes expressing channels or transporters.

Another data set concerns the target T2, TRPV1 (Homo sapiens, UniProt Q8NER1).
T2 construct: expressed in transfected cells; host or cells: Xenopus laevis oocytes (cRNA injection)
The data set is classed as cell-based.

The target of another data set is T3, GIRK1/GIRK2 channels (Mus musculus, UniProt P48542+P63250).
T3 construct: expressed in transfected cells; host or cells: Xenopus laevis oocytes (cRNA injection)
T3 sequence (P63250 1-501): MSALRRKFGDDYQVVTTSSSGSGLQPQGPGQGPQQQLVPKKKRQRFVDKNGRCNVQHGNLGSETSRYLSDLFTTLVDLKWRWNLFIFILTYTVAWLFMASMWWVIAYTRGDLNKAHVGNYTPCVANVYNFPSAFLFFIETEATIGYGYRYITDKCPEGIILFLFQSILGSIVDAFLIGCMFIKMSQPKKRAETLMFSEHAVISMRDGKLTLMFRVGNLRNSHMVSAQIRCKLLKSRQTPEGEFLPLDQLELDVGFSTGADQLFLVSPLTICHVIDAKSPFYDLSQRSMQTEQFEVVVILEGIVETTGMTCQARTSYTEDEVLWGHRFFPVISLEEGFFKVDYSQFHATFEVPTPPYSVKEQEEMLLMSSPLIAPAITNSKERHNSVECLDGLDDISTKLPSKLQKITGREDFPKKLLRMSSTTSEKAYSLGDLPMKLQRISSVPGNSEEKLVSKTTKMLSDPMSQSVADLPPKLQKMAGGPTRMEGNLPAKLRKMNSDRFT
T3 sequence (P48542 1-425): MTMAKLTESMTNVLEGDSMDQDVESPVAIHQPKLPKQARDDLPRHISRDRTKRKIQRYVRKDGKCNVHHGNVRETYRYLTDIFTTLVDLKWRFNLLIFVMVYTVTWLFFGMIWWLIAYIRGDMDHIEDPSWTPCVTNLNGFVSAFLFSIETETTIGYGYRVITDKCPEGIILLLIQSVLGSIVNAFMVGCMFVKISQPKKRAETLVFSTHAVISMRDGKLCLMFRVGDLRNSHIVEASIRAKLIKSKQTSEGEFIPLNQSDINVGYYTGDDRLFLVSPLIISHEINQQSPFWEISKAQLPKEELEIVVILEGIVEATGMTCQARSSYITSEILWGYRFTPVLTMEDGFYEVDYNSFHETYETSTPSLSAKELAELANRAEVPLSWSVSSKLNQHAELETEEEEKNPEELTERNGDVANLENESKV
The data set is described as follows: Two-electrode voltage-clamp, GIRK1/GIRK2 channels expressed in oocytes. The note with it: 100 μM OS, HK. The data set is classed as cell-based. The text has this: In vitro transcription of cDNA clones.
Heterologous expression in Xenopus laevis oocytes.
(§1) Electrophysiological measurements.

A further data set has as its target CaV3.1 (Homo sapiens, UniProt O43497).
Source text: as §1
(§2) (A), (B), (C), and (D) represent that
(§3) currents through the channels.
(§4) in oocytes, as described before (6-8).

The target in a further data set is KV1.5 (Homo sapiens, UniProt P22460).
KV1.5, sequence (P22460 whole entry): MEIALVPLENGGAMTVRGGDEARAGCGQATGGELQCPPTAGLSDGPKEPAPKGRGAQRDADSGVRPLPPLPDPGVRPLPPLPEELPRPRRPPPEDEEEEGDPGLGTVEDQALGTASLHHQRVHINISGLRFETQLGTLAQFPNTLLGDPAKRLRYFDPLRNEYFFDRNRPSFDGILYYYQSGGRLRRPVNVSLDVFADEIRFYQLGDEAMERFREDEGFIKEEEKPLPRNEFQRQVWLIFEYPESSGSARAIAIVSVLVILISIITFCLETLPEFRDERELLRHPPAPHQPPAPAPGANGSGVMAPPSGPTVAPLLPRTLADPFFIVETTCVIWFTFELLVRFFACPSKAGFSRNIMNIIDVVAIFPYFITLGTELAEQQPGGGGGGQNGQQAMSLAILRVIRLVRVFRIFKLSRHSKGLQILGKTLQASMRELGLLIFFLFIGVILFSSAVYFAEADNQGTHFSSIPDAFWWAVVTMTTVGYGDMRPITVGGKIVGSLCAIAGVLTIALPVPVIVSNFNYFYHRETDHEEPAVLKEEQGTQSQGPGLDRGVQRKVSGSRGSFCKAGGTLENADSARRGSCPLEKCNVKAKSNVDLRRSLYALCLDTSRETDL
Source text: as §1, §2, §3, §4

A further data set has as its target NaV1.5 (Homo sapiens, UniProt Q14524).
Source text: as §1, §2, §3, §4

Another data set concerns the target hERG (Homo sapiens, UniProt Q12809).
Source text: as §1, §2, §3, §4

For another data set, the system named is non-injected oocytes. The data set is described as follows: Two-electrode voltage-clamp on non-injected oocytes. The note with it: 100 μM OS, ND96. The data set is classed as cell-based, Xenopus laevis.
Source text: Isolation of Xenopus laevis oocytes. All procedures for the use and handling of adult female Xenopus laevis frogs (CRB Xénopes, Rennes, France) were approved by the Animal Ethics Committee of the KU Leuven (Project No. P186/2019) following regulations of the European Union (EU) concerning the welfare of laboratory animals as declared in Directive 2010/63/EU. Oocytes were isolated as described previously. Stage V–VI Xenopus laevis oocytes were isolated by partial ovariectomy. The animals were anesthetized by a 15 min submersion in 0.1% tricaine methane sulfonate (Sigma-Aldrich Chemical, St. Louis, MO, USA) solution (pH 7.0). The oocytes were enzymatically defolliculated by collagenase (3 mg/mL) (Sigma-Aldrich Chemical, St. Louis, MO, USA) digestion at 16 °C on a rocker platform in a Ca^2+-free ND96 solution. Isolated stage V–VI oocytes were then maintained in ND96 solution containing Theophylline and Gentamicin at 16 °C.
as §1

hERG, sequence (Q12809 whole entry): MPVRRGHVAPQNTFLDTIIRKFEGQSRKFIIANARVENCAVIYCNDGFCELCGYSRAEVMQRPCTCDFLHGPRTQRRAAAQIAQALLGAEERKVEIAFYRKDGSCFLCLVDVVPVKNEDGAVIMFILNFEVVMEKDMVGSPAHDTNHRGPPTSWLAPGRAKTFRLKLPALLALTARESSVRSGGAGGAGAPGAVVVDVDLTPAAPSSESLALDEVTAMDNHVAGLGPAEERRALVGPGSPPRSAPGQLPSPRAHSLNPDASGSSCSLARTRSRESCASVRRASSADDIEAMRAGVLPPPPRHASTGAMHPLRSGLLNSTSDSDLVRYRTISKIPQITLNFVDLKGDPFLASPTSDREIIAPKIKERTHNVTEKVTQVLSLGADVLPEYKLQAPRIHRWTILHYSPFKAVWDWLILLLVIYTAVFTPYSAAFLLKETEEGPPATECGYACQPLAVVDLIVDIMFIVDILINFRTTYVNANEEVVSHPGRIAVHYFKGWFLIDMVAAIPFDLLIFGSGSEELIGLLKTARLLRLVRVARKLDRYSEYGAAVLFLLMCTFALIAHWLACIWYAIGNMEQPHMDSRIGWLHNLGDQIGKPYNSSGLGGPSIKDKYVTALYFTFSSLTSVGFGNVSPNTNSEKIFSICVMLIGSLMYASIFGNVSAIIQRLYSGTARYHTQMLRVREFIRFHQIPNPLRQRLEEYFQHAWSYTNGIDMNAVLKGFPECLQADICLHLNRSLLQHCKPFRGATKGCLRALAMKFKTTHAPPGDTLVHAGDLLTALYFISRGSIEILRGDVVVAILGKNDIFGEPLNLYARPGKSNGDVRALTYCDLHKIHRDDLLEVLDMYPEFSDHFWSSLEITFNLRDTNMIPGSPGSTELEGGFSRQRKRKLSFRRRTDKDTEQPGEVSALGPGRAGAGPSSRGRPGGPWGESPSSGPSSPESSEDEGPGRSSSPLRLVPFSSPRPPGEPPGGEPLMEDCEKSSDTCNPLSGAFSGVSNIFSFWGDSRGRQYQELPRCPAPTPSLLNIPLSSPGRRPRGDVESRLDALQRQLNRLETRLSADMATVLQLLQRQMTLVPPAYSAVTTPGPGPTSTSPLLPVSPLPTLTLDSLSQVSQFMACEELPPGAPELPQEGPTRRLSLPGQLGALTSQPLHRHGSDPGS
MRGPRX2, sequence (Q96LB1 whole entry): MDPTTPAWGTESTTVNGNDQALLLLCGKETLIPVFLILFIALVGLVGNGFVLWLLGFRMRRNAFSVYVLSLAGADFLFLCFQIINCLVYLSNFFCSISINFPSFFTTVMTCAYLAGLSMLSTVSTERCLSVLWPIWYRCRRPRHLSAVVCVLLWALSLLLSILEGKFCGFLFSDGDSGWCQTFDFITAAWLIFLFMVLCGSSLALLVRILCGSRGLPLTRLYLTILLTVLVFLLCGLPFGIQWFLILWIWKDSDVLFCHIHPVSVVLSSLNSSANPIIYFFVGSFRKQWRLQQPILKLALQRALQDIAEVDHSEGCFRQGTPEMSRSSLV
NaV1.5, sequence (Q14524 whole entry): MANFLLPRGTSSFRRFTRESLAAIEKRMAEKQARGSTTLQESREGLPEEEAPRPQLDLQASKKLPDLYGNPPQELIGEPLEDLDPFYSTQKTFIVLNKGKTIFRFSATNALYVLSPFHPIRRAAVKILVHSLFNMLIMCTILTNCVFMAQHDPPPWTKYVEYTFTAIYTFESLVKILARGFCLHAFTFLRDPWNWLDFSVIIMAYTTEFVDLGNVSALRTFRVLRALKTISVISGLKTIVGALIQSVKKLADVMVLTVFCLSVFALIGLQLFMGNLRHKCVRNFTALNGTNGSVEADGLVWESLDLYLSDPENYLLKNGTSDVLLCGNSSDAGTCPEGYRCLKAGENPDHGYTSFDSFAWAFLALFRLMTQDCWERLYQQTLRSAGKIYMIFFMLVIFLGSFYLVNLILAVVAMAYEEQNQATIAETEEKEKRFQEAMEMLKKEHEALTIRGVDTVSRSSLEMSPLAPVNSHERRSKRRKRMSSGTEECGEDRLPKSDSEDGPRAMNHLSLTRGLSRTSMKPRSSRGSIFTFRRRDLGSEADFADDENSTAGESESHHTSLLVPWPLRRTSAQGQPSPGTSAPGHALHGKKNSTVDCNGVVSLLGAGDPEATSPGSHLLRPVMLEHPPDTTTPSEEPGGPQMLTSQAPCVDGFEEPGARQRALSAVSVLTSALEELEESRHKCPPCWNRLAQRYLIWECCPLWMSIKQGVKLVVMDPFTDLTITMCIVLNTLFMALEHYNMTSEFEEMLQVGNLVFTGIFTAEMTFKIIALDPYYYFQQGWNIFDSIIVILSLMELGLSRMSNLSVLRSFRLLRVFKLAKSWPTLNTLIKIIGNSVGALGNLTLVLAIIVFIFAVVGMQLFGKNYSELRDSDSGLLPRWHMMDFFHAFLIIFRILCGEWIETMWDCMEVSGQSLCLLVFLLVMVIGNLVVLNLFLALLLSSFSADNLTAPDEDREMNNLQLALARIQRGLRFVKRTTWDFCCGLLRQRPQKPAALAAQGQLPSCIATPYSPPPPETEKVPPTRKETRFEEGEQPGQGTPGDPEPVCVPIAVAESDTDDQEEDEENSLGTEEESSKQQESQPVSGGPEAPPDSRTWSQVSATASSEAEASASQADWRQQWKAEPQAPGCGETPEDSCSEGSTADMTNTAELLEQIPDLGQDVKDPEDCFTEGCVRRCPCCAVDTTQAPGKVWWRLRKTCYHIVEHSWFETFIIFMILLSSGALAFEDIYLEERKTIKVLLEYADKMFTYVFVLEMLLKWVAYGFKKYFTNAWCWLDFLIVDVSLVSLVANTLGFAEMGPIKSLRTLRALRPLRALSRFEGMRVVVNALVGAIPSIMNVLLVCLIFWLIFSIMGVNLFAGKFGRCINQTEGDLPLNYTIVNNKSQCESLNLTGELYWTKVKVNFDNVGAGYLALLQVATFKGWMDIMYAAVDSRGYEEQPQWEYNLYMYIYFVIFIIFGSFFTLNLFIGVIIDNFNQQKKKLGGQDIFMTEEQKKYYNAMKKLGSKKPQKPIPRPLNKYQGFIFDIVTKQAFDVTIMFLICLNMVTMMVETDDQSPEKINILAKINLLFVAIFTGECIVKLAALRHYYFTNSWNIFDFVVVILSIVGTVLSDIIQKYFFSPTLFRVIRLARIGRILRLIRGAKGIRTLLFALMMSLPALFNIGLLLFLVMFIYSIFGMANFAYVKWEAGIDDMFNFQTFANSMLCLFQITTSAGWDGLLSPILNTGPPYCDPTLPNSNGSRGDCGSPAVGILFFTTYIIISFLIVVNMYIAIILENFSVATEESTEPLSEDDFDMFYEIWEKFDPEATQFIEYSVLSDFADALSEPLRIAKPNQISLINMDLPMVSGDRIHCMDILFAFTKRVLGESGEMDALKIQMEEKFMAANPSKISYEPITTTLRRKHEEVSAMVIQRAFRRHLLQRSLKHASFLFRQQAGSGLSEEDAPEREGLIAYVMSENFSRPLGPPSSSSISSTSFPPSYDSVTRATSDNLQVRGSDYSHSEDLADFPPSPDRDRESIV
5-HT4aR, sequence (P97288 1-387 isoform P97288-2): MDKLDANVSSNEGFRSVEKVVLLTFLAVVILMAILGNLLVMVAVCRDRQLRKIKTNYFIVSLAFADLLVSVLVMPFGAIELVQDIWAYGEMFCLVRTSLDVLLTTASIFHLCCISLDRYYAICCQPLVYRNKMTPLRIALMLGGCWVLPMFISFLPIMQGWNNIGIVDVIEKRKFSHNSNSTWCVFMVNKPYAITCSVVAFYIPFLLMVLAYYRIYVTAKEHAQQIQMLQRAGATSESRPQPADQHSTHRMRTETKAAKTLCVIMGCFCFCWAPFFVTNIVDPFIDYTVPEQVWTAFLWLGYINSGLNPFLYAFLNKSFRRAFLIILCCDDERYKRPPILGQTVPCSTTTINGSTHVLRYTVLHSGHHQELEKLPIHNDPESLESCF

In the case of `CCCCCCCC/C=C\CCCCCCCC(=O)NCCc1c[nH]c2ccc(O)cc12` [OS, oleoyl serotonin], the “Activity in selectivity screening” value at H4R, on α7-nAChR, at TRPV1, at MRGPRX2, at CaV3.1 and on KV1.5 was “did not show significant activity” throughout. The “Activity in selectivity screening” value at NaV1.5, at hERG and on 5-HT4aR was “did not show significant activity” each time. Besides, the “Effect on WIN55,212-2-induced inward K+ currents (IK,WIN+OS)” value on CB2 receptor (hCB2) (100 μM OS co-applied with 0.3 μM WIN55,212-2) is “inhibited”. The “Effect of OS alone on IK,basal” value at CB2 receptor (hCB2) (100 μM OS, 20–30 s, in HK) was “did not change the response of IK,basal”. For the same molecule, the IC50 on CB2 receptor (hCB2) (IC50 of blocking CB2 receptor activated by WIN55,212-2, 0.03 μM WIN + OS) was determined as 14.8 µM; on CB2 receptor (hCB2) (IC50 of blocking CB2 receptor activated by WIN55,212-2, 0.1 μM WIN + OS), 13.2 µM; at CB2 receptor (hCB2) (IC50 of blocking CB2 receptor activated by WIN55,212-2, 0.3 μM WIN + OS) it was 12.1 µM; on CB2 receptor (hCB2) (IC50 of blocking CB2 receptor activated by WIN55,212-2, 1 μM WIN + OS), 10.4 µM. For the same molecule, at CB2 receptor (hCB2) (against WIN55,212-2), the Mode of antagonism entry is given as “non-competitively blocked”. Besides, at GIRK1/GIRK2 channels, the “Effect on IK,basal” value was “did not significantly change IK,basal”. In addition, the “Activity on non-injected oocytes” value with non-injected oocytes is “did not show activity”.

The term IC50 denotes the point on the concentration scale where inhibition reaches its midpoint.
